The results in this text go back to patent publication US9840513B2 (AbbVie S.à.r.l., priority 2015, dated 2017).

Assay [1] has as its target T1, F508delCFTR in primary hBE cells with F508del/F508del CFTR mutation (Homo sapiens, UniProt P13569, DEL508-508).
T1 construct: cells isolated from CF patients with the homozygous mutation; endogenous in cells; host or cells: primary human bronchial epithelial (hBE) cells from F508del/F508del CF patients
The assay can be described thus: Transepithelial Clamp Circuit on Human Bronchial Epithelial Cells Conductance Assay (hBE-TECC). Format: cell-based. The settings on record: for EC50: primary hBE cells F508del/F508del, 18-24 hours at 37° C., equivalent short circuit current, 6 concentrations. The source says:
Transepithelial Clamp Circuit on Human Bronchial Epithelial Cells Conductance Assay:
A cell based assay using the primary human bronchial epithelial cells (hBE) was used as a secondary assay to test novel F508delCFTR correctors for their activity on primary hBE cells with F508del/F508del CFTR mutation. The assay used a TECC-24 (Transepithelial Clamp Circuit for 24 wells) instrument that measures the functionality of the mutated channel by measuring the equivalent short circuit current (Ieq) generated by the polarized epithelial cells. The instrument works by measuring the transepithelial potential difference (Vt) and transepithelial resistance (Rt) in an open circuit format, and the Ieq is calculated by using Ohms law (Ieq=Vt/Rt). The assay was run in a 24-well format and all 24-wells were measured at the same time point giving a higher throughput for this assay.
Primary human bronchial epithelial (hBE) cells from F508del/F508delCFTR patients were expanded from 1×10^6 to 250×10^6 cells (Neuberger T, Burton B, Clark H and VanGoor F; Cystic Fibrosis, Methods in Mole Biol 741; eds. Amaral M D and Kunzelmann K, 2011). For this purpose, cells isolated from CF patients with the homozygous mutation were seeded onto 24 well Corning (Cat #3378) filter plates that were coated with 3T3 conditioned media and grown at an air-liquid interface for 35 days using an Ultroser® G supplemented differentiation media. Apical surface mucus was removed 72 hours before the experiment using 3 mM dithiothreitol (DTT) in phosphate buffered saline (PBS). The apical surface was washed again 24 hours before the experiment using PBS. The cells were incubated with the desired dose response of the corrector compounds 18-24 hours at 37° C., 5% CO2. The corrector compounds are only added on the basolateral side of the epithelial cells.
On the day of measuring the corrector activity on the TECC, the cells were switched into a bicarbonate and serum free F-12 Coon's medium and allowed to equilibrate for 90 minutes in a CO2 free incubator. At the time of measurement, the apical and basolateral sides of the filter were bathed with the F-12 Coon's modification media (with 20 mM 4-(2-hydroxyethyl)-1-piperazineethanesulfonic acid (HEPES), pH 7.4 (using 1 M tris(hydroxymethyl)aminomethane (Tris)), and the measurements were made at 36.5° C. Transepithelial voltage (Vt) and transepithelial resistance (Rt) were measured using a 24 channel transepithelial current clamp (TECC-24). Current responses to the sequential addition of benzamil (apical 6 μM addition; for inhibiting epithelial ENaC channel), forskolin (apical and basolateral 10 μM addition; for activating the CFTR channel), control potentiator (N-(3-carbamoyl-5,5,7,7-tetramethyl-4,7-dihydro-5H-thieno[2,3-c]pyran-2-yl)-1H-pyrazole-5-carboxamide; apical and basolateral […] addition; for potentiating the CFTR channel) and bumetanide (basolateral 20 μM addition; for inhibiting the Na:2Cl:K co-transporter, an indirect measure of inhibiting the Cl-secretion driven by CFTR channel) were measured.
All plates contained negative controls (dimethyl sulfoxide, DMSO) which coupled with the control potentiator (N-(3-carbamoyl-5,5,7,7-tetramethyl-4,7-dihydro-5H-thieno[2,3-c]pyran-2-yl)-1H-pyrazole-5-carboxamide) sets the null response and positive controls (3 μM of 3-[(2R,4R)-4-({[1-(2,2-difluoro-1,3-benzodioxol-5-yl)cyclopropyl]carbonyl}amino)-7-methoxy-3,4-dihydro-2H-chromen-2-yl]benzoic acid) coupled with the control potentiator sets the 100% response to measure the correction of the mutated CFTR channel. The maximum percent activity is reported relative to the positive control value.
The % activity measured at each of the 6 test concentrations of the test compound was normalized to the on-plate positive control using the following formula: % activity=[[…]]*100 […]

For assay [2], the target named is T2, F508delCFTR cell surface expression in CFBE41o-F508delCFTR-HRP cells (Homo sapiens, UniProt P13569, DEL508-508).
T2 construct: fused on or other part: Horseradish peroxidase (HRP) reporter inserted in the fourth exofacial (extracellular) loop of CFTR; expression is doxycycline-inducible
In words: Cell Surface Expression-Horse Radish Peroxidase (CSE-HRP) Assay. Format: cell-based. The settings on record: for EC50: CFBE41o-F508delCFTR-HRP cells, 18-24 hours at 33° C., 8-point curve, highest concentration 20 μM; for Maximum % activity (%): maximum at any tested concentration, normalized to on-plate positive control (3 μM). In short, it runs like this:
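CFBE41o- cells with HRP-tagged F508delCFTR, expression induced by 0.5 μg/mL doxycycline for 72 h at 37 °C, then compound for 18-24 h at 33 °C (8-point, 3-fold, top 20 μM). Surface HRP measured by luminol luminescence; % activity normalised to 3 μM positive-control corrector; EC50 from variable-slope sigmoidal fit, three replicate plates.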

Setting [3] is: relative to positive control (3 μM) coupled with control potentiator.

T1 sequence (P13569 with tags, fused parts or gaps DEL508-508): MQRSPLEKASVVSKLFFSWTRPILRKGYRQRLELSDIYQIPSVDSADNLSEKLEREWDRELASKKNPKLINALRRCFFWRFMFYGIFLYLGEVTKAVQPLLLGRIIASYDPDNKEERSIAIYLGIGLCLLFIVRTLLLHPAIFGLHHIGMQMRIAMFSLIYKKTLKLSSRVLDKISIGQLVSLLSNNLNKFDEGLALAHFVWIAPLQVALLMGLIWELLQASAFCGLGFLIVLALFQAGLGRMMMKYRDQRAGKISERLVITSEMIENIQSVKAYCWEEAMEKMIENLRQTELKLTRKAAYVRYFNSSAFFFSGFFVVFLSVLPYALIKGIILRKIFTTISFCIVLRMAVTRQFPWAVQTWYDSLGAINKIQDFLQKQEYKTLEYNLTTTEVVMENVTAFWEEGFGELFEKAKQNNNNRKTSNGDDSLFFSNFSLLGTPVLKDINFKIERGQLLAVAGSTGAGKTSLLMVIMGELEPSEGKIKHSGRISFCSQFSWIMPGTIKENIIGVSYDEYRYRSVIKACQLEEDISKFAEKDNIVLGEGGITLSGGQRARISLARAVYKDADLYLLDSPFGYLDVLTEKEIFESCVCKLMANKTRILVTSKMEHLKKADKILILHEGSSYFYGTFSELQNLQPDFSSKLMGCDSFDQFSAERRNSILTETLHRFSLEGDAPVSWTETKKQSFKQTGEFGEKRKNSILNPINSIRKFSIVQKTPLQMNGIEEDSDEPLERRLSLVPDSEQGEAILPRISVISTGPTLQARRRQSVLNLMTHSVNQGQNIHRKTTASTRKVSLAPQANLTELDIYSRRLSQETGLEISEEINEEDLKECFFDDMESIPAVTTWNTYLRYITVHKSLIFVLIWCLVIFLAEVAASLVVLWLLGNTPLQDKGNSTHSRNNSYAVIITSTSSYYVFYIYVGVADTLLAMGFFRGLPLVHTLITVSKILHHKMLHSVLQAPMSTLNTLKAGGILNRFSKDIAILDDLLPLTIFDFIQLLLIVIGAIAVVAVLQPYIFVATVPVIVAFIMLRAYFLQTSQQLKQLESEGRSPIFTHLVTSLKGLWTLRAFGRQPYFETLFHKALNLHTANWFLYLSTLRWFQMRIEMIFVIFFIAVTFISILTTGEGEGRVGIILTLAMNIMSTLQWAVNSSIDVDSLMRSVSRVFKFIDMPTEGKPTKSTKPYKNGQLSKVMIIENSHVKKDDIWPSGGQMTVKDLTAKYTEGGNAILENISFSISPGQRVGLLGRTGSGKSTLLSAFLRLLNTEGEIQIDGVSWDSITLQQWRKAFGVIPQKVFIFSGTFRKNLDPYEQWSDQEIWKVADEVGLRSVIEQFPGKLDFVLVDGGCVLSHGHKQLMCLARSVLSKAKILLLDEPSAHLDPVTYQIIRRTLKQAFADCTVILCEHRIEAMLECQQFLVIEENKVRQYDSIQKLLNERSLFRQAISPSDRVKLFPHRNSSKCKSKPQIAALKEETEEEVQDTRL
T2 sequence (P13569 with tags, fused parts or gaps DEL508-508 limits assumed): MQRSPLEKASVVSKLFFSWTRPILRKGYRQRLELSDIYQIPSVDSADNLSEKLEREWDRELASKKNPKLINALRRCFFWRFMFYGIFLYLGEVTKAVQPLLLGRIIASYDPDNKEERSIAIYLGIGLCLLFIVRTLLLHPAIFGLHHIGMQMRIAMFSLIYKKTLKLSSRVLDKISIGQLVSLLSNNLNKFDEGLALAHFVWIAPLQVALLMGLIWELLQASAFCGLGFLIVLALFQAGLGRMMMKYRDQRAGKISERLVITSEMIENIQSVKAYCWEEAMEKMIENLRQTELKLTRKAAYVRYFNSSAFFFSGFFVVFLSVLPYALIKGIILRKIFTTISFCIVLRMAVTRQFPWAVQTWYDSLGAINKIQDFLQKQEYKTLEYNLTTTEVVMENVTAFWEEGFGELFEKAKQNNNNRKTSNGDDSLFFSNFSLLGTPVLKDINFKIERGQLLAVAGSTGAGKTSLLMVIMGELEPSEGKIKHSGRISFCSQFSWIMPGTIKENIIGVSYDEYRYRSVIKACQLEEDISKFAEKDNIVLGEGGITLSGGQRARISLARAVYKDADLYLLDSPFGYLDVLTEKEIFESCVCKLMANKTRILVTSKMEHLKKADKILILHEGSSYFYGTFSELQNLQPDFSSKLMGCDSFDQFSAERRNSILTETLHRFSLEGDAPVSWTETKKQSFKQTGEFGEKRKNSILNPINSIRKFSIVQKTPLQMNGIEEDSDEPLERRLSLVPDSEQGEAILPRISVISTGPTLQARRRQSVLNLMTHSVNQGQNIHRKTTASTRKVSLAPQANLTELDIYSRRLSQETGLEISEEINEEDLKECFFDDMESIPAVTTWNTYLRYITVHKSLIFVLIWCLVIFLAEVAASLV
T2 sequence (P13569 919-1480 limits assumed, stated change not applied): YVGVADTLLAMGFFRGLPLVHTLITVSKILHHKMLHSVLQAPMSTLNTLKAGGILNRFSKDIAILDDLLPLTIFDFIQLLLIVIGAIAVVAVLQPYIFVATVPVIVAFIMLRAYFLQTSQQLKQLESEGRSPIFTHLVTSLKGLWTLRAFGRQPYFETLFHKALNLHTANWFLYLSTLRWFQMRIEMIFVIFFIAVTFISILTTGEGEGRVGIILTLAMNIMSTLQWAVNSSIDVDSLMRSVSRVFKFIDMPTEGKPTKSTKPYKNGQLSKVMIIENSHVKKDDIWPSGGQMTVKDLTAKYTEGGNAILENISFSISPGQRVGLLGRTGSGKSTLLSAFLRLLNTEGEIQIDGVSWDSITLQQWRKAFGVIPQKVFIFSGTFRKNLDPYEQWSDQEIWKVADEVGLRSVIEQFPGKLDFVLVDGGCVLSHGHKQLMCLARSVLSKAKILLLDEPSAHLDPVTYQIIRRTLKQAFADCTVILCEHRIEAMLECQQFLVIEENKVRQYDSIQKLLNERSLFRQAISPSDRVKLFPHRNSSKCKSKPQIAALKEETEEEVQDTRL

One may read the EC50 as the concentration that produces a half-maximal response. For `Cc1ccc(NC(=O)C2(C)COc3cc4c(cc32)OC(F)(F)O4)nc1-c1cccc(C(=O)O)c1` (stereo not shown) [Example 2, 3-{6-[(2,2-difluoro-7-methyl-6,7-dihydro-2H-furo[2,3-f][1,3]benzodioxole-7-carbonyl)amino]-3-methylpyridin-2-yl}benzoic acid], the EC50 in assay [1] came to 0.242 µM; in assay [2], 0.3 µM. Further, the “Maximum % activity (%)” value was determined as 99% in assay [1] (setting [3]) and 159% in assay [2].

On to `CC(C)(CO)c1cc2cc(NC(=O)[C@@]3(C)COc4cc5c(cc43)OC(F)(F)O5)c(F)cc2n1C[C@@H](O)CO` [Example 130, (7R)—N-{1-[(2R)-2,3-dihydroxypropyl]-6-fluoro-2-(1-hydroxy-2-methylpropan-2-yl)-1H-indol-5-yl}-2,2-difluoro-7-methyl-6,7-dihydro-2H-furo[2,3-f][1,3]benzodioxole-7-carboxamide], for which the EC50 in assay [1] came out at 0.067 µM; in assay [2] it was 0.39 µM. Besides, the figures for the “Maximum % activity (%)” value in assay [1] (setting [3]) and in assay [2] were 72% and 105%, respectively.

For `COc1ccc2c(c1)O[C@@H](c1cnc(N3C[C@@H](O)[C@H](O)C3)cn1)C[C@H]2NC(=O)[C@@]1(C)COc2cc3c(cc21)OC(F)(F)O3` [Example 250, (7R)—N-[(2R,4R)-2-{5-[(3R,4R)-3,4-dihydroxypyrrolidin-1-yl]pyrazin-2-yl}-7-methoxy-3,4-dihydro-2H-1-benzopyran-4-yl]-2,2-difluoro-7-methyl-6,7-dihydro-2H-furo[2,3-f][1,3]benzodioxole-7-carboxamide], the EC50 in assay [1] was determined as 0.001 µM; in assay [2], 0.02 µM. For the same compound, the “Maximum % activity (%)” value in assay [1] (setting [3]) worked out at 95%; in assay [2] it was 135%.

As for `COc1ccc2c(c1)O[C@@H](c1ccc(C(=O)NCC(O)CO)cn1)C[C@H]2NC(=O)[C@@]1(C)COc2cc3c(cc21)OC(F)(F)O3` (stereo partly drawn) [Example 243, 6-[(2R,4R)-4-{[(7R)-2,2-difluoro-7-methyl-6,7-dihydro-2H-furo[2,3-f][1,3]benzodioxole-7-carbonyl]amino}-7-methoxy-3,4-dihydro-2H-1-benzopyran-2-yl]-N-(2,3-dihydroxypropyl)pyridine-3-carboxamide], the EC50 in assay [1] came to 0.021 µM; in assay [2], 0.07 µM. For the same compound, the “Maximum % activity (%)” value in assay [1] (setting [3]) is reported as 87%; in assay [2], 112%.

Turning to `CC1(C(=O)Nc2cc(C3CC3)nn(-c3ccc(C(=O)O)cc3)c2=O)COc2cc3c(cc21)OC(F)(F)O3` (stereo not shown) [Example 30, 4-{3-cyclopropyl-5-[(2,2-difluoro-7-methyl-6,7-dihydro-2H-furo[2,3-f][1,3]benzodioxole-7-carbonyl)amino]-6-oxopyridazin-1(614)-yl}benzoic acid], the “Maximum % activity (%)” value in assay [1] (testing concentration 10 μM) is recorded as 47%. Moreover, in assay [2], it took 0.98 µM to reach a half-maximal effect (EC50) and the “Maximum % activity (%)” value came to 122%.

Turning to `COc1ccc2c(c1)O[C@@H](c1cnc(C(O)CO)cn1)C[C@H]2NC(=O)[C@@]1(C)COc2cc3c(cc21)OC(F)(F)O3` (stereo partly drawn) [Example 175, (7R)—N-{(2R,4R)-2-[5-(1,2-dihydroxyethyl)pyrazin-2-yl]-7-methoxy-3,4-dihydro-2H-1-benzopyran-4-yl}-2,2-difluoro-7-methyl-6,7-dihydro-2H-furo[2,3-f][1,3]benzodioxole-7-carboxamide], the EC50 in assay [1] was 0.043 µM; in assay [2], 0.22 µM. The “Maximum % activity (%)” value in assay [1] (setting [3]) came to 107%; in assay [2] it was 139%.

Take `C[C@]1(C(=O)N[C@@H]2C[C@H]([C@H]3CC[C@H](C(=O)N4CCOCC4)CC3)Oc3cc(OC(F)(F)F)ccc32)COc2cc3c(cc21)OC(F)(F)O3` [Example 271, (7R)-2,2-difluoro-7-methyl-N-[(2R,4R)-2-[trans-4-(morpholine-4-carbonyl)cyclohexyl]-7-(trifluoromethoxy)-3,4-dihydro-2H-1-benzopyran-4-yl]-6,7-dihydro-2H-furo[2,3-f][1,3]benzodioxole-7-carboxamide]: in assay [2], the response was half-maximal at 0.06 µM (EC50) and the “Maximum % activity (%)” value stood at 172%.

`COc1ccc2c(c1)O[C@@H](c1nnn[nH]1)C[C@H]2NC(=O)[C@@]1(C)COc2cc3c(cc21)OC(F)(F)O3` [Example 202, (7R)-2,2-difluoro-N-[(2R,4R)-7-methoxy-2-(1H-tetrazol-5-yl)-3,4-dihydro-2H-1-benzopyran-4-yl]-7-methyl-6,7-dihydro-2H-furo[2,3-f][1,3]benzodioxole-7-carboxamide]: in assay [2], the EC50 is above 20 µM and the “Maximum % activity (%)” value came to 8%.

Take `CC1(C(=O)Nc2cccc(-c3ccccc3)n2)COc2cc3c(cc21)OC(F)(F)O3` (stereo not shown) [Example 55, 2,2-difluoro-7-methyl-N-(6-phenylpyridin-2-yl)-6,7-dihydro-2H-furo[2,3-f][1,3]benzodioxole-7-carboxamide]: in assay [2], it took 6.62 µM to reach a half-maximal effect (EC50) and the “Maximum % activity (%)” value was determined as 159%.

Regarding `COc1ccc2c(c1)O[C@@H](c1ccc(C(=O)N3CCC(F)(F)CC3)cc1)C[C@H]2NC(=O)[C@@]1(C)COc2cc3c(cc21)OC(F)(F)O3` [Example 223, (7R)—N-{(2R,4R)-2-[4-(4,4-difluoropiperidine-1-carbonyl)phenyl]-7-methoxy-3,4-dihydro-2H-1-benzopyran-4-yl}-2,2-difluoro-7-methyl-6,7-dihydro-2H-furo[2,3-f][1,3]benzodioxole-7-carboxamide], in assay [2], the EC50 was 0.07 µM and the “Maximum % activity (%)” value was determined as 157%.

For `COC(=O)C1CCN(c2cccc(NC(=O)C3(C)COc4cc5c(cc43)OC(F)(F)O5)n2)CC1` (stereo not shown) [Example 70, methyl 1-{6-[(2,2-difluoro-7-methyl-6,7-dihydro-2H-furo[2,3-f][1,3]benzodioxole-7-carbonyl)amino]pyridin-2-yl}piperidine-4-carboxylate], in assay [2], the EC50 stood at 1.3 µM and the “Maximum % activity (%)” value was found to be 116%.

As for `Cc1ccc(NC(=O)C2(C)COc3cc4c(cc32)OC(F)(F)O4)nc1-c1cccc(C(=O)N(C)C)c1` (stereo not shown) [Example 75, N-{6-[3-(dimethylcarbamoyl)phenyl]-5-methylpyridin-2-yl}-2,2-difluoro-7-methyl-6,7-dihydro-2H-furo[2,3-f][1,3]benzodioxole-7-carboxamide], in assay [2], the EC50 is 1.73 µM and the “Maximum % activity (%)” value is 94%.

For the compound `CC1(C)CCN(c2cccc(NC(=O)[C@@]3(C)COc4cc5c(cc43)OC(F)(F)O5)n2)C1` [Example 101, (7R)—N-[6-(3,3-dimethylpyrrolidin-1-yl)pyridin-2-yl]-2,2-difluoro-7-methyl-6,7-dihydro-2H-furo[2,3-f][1,3]benzodioxole-7-carboxamide], in assay [2], the EC50 was found to be 0.87 µM and the “Maximum % activity (%)” value came to 116%.
